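Protocol summary: plate cells (96-well), add compound at 5 concentrations, incubate 48 h, interpolate endpoints linearly. At the TGI there is no net growth.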
Tests used:
Experiment in all cases: NCI anticancer screen, dose series, 48 h
SF-539 CNS = system: SF-539 CNS
MDA-N = system: MDA-N
SF-268 CNS = system: SF-268 CNS
EKVX NSCLC = system: EKVX NSCLC
SK-MEL-2 melanoma = system: SK-MEL-2 melanoma
MDA-MB-435 = system: MDA-MB-435
HOP-92 NSCLC = system: HOP-92 NSCLC
K-562 leukemia = system: K-562 leukemia
ACHN renal = system: ACHN renal
SK-OV-3 ovarian = system: SK-OV-3 ovarian
OVCAR-5 ovarian = system: OVCAR-5 ovarian
SK-MEL-28 melanoma = system: SK-MEL-28 melanoma
OVCAR-8 ovarian = system: OVCAR-8 ovarian
CAKI-1 renal = system: CAKI-1 renal
COLO 205 colon = system: COLO 205 colon
UACC-62 melanoma = system: UACC-62 melanoma
NCI-H23 lung = system: NCI-H23 lung
786-0 renal = system: 786-0 renal
NCI-H460 lung = system: NCI-H460 lung
DU-145 prostate = system: DU-145 prostate
KM12 colon = system: KM12 colon
PC-3 prostate = system: PC-3 prostate
SF-295 CNS = system: SF-295 CNS
MALME-3M melanoma = system: MALME-3M melanoma
HL-60(TB) leukemia = system: HL-60(TB) leukemia
SW-620 colon = system: SW-620 colon
LOX IMVI melanoma = system: LOX IMVI melanoma
UO-31 renal = system: UO-31 renal
BT-549 breast = system: BT-549 breast
RPMI-8226 leukemia = system: RPMI-8226 leukemia
SN12C renal = system: SN12C renal
HCT-15 colon = system: HCT-15 colon
HT29 colon = system: HT29 colon
SNB-75 CNS = system: SNB-75 CNS
HCC-2998 colon = system: HCC-2998 colon
RXF 393 renal = system: RXF 393 renal
TK-10 renal = system: TK-10 renal
MCF7 breast = system: MCF7 breast
MDA-MB-231 breast = system: MDA-MB-231 breast
SNB-19 CNS = system: SNB-19 CNS
OVCAR-4 ovarian = system: OVCAR-4 ovarian
A498 renal = system: A498 renal
UACC-257 melanoma = system: UACC-257 melanoma
CCRF-CEM leukemia = system: CCRF-CEM leukemia
HOP-62 NSCLC = system: HOP-62 NSCLC
U251 CNS = system: U251 CNS
HCT-116 colon = system: HCT-116 colon
MOLT-4 leukemia = system: MOLT-4 leukemia
SK-MEL-5 melanoma = system: SK-MEL-5 melanoma
A549 NSCLC = system: A549 NSCLC
OVCAR-3 ovarian = system: OVCAR-3 ovarian
NCI/ADR-RES ovarian = system: NCI/ADR-RES ovarian
NCI-H226 lung = system: NCI-H226 lung
HS 578T breast = system: HS 578T breast
IGROV1 ovarian = system: IGROV1 ovarian
NCI-H522 lung = system: NCI-H522 lung
M14 melanoma = system: M14 melanoma
T-47D breast = system: T-47D breast
SR leukemia = system: SR leukemia

For `CCCCS/C(=C(/C#N)C(N)=O)c1cc2c([nH]1)CCCC2`, the TGI (SF-539 CNS) was 30 µM, the TGI (MDA-N) was 18.3 µM and the TGI (SF-268 CNS) was 26.7 µM. It also gave a TGI (EKVX NSCLC) of 24.4 µM, a TGI (SK-MEL-2 melanoma) of 34.7 µM and a TGI (MDA-MB-435) of 11.9 µM. For the same molecule, the TGI (HOP-92 NSCLC) was 38.7 µM, the TGI (K-562 leukemia) was over 100 µM and the TGI (ACHN renal) was 39.7 µM. It also gave a TGI (SK-OV-3 ovarian) of 93.8 µM, a TGI (OVCAR-5 ovarian) of over 100 µM and a TGI (SK-MEL-28 melanoma) of 28.2 µM. For the same molecule, the TGI (OVCAR-8 ovarian) was 36.5 µM, the TGI (CAKI-1 renal) was 29.5 µM and the TGI (COLO 205 colon) was 27.9 µM. The TGI (UACC-62 melanoma) was 22.8 µM, the TGI (NCI-H23 lung) was 36.7 µM and the TGI (786-0 renal) was 24 µM. The TGI (NCI-H460 lung) was 48.3 µM, the TGI (DU-145 prostate) was 25.4 µM and the TGI (KM12 colon) was 23.5 µM. The TGI (PC-3 prostate) was 46.5 µM, the TGI (SF-295 CNS) was 28.5 µM and the TGI (MALME-3M melanoma) was 23.8 µM. It also gave a TGI (HL-60(TB) leukemia) of 11.6 µM, a TGI (SW-620 colon) of 24.6 µM and a TGI (LOX IMVI melanoma) of 21.1 µM. For the same molecule, the TGI (UO-31 renal) was 25.8 µM, the TGI (BT-549 breast) was 27.8 µM and the TGI (RPMI-8226 leukemia) was 29.6 µM. For the same molecule, the TGI (SN12C renal) was 43.1 µM, the TGI (HCT-15 colon) was 21.4 µM and the TGI (HT29 colon) was 15 µM. The TGI (SNB-75 CNS) was 29.1 µM, the TGI (HCC-2998 colon) was 26.7 µM and the TGI (RXF 393 renal) was 38.6 µM. For the same molecule, the TGI (TK-10 renal) was 29 µM, the TGI (MCF7 breast) was 50.4 µM and the TGI (MDA-MB-231 breast) was 30.3 µM. It also gave a TGI (SNB-19 CNS) of 34.4 µM, a TGI (OVCAR-4 ovarian) of 36.1 µM and a TGI (A498 renal) of 31.4 µM. It also gave a TGI (UACC-257 melanoma) of 32.4 µM, a TGI (CCRF-CEM leukemia) of 48.9 µM and a TGI (HOP-62 NSCLC) of 72 µM. It also gave a TGI (U251 CNS) of 31.2 µM, a TGI (HCT-116 colon) of 23 µM and a TGI (MOLT-4 leukemia) of 38.6 µM. It also gave a TGI (SK-MEL-5 melanoma) of 26.7 µM, a TGI (A549 NSCLC) of over 100 µM and a TGI (OVCAR-3 ovarian) of 36.5 µM. It also gave a TGI (NCI/ADR-RES ovarian) of 28.6 µM and a TGI (NCI-H226 lung) of 34.7 µM.

In the case of `CN(C)c1nc2n(CCO)ccnc-2c(=O)n1`, the TGI (SF-539 CNS) is reported as over 100 µM, the TGI (MDA-N) is reported as over 100 µM and the TGI (HS 578T breast) is reported as over 100 µM. The TGI (SF-268 CNS) was over 100 µM, the TGI (EKVX NSCLC) was over 100 µM and the TGI (SK-MEL-2 melanoma) was over 100 µM. For the same molecule, the TGI (IGROV1 ovarian) was over 100 µM, the TGI (MDA-MB-435) was over 100 µM and the TGI (HOP-92 NSCLC) was over 100 µM. The TGI (NCI-H522 lung) was over 100 µM, the TGI (K-562 leukemia) was over 100 µM and the TGI (ACHN renal) was over 100 µM. The TGI (SK-OV-3 ovarian) was over 100 µM, the TGI (OVCAR-5 ovarian) was over 100 µM and the TGI (SK-MEL-28 melanoma) was over 100 µM. It also gave a TGI (OVCAR-8 ovarian) of over 100 µM, a TGI (M14 melanoma) of over 100 µM and a TGI (CAKI-1 renal) of over 100 µM. It also gave a TGI (T-47D breast) of over 100 µM, a TGI (COLO 205 colon) of over 100 µM and a TGI (UACC-62 melanoma) of over 100 µM. The TGI (SR leukemia) was over 100 µM, the TGI (NCI-H23 lung) was over 100 µM and the TGI (786-0 renal) was over 100 µM. The TGI (NCI-H460 lung) was over 100 µM, the TGI (DU-145 prostate) was over 100 µM and the TGI (KM12 colon) was over 100 µM. For the same molecule, the TGI (PC-3 prostate) was over 100 µM, the TGI (SF-295 CNS) was over 100 µM and the TGI (MALME-3M melanoma) was over 100 µM. The TGI (SW-620 colon) was over 100 µM, the TGI (LOX IMVI melanoma) was over 100 µM and the TGI (UO-31 renal) was over 100 µM. It also gave a TGI (BT-549 breast) of over 100 µM, a TGI (RPMI-8226 leukemia) of over 100 µM and a TGI (SN12C renal) of over 100 µM. It also gave a TGI (HCT-15 colon) of over 100 µM, a TGI (HT29 colon) of over 100 µM and a TGI (SNB-75 CNS) of over 100 µM. It also gave a TGI (HCC-2998 colon) of over 100 µM, a TGI (RXF 393 renal) of over 100 µM and a TGI (TK-10 renal) of over 100 µM. The TGI (MDA-MB-231 breast) was over 100 µM, the TGI (SNB-19 CNS) was over 100 µM and the TGI (OVCAR-4 ovarian) was over 100 µM. It also gave a TGI (A498 renal) of over 100 µM, a TGI (UACC-257 melanoma) of over 100 µM and a TGI (CCRF-CEM leukemia) of over 100 µM. For the same molecule, the TGI (HOP-62 NSCLC) was over 100 µM, the TGI (U251 CNS) was over 100 µM and the TGI (HCT-116 colon) was over 100 µM. The TGI (MOLT-4 leukemia) was over 100 µM, the TGI (SK-MEL-5 melanoma) was over 100 µM and the TGI (A549 NSCLC) was over 100 µM. For the same molecule, the TGI (OVCAR-3 ovarian) was over 100 µM, the TGI (NCI/ADR-RES ovarian) was over 100 µM and the TGI (NCI-H226 lung) was over 100 µM.

— PubChem BioAssay (NCI)
